Experiment [1] concerns 3T3-L1. In words: Upregulation of PGC-1 gene expression in mouse 3T3L1 cells at […] after 4 days by RT-PCR analysis relative to control. The experiment is classed as functional, cell-based.
The subject of experiment [2] is 3T3-L1. In words: Downregulation of ACC-1 gene expression in mouse 3T3L1 cells at […] after 4 days by RT-PCR analysis relative to insulin. The experiment is classed as functional.
The test system of experiment [3] is 3T3-L1. As to the kind of experiment: Downregulation of ACC-1 gene expression in mouse 3T3L1 cells at […] after 4 days by RT-PCR analysis relative to untreated control. The experiment is classed as functional.
Experiment [4] relates to 3T3-L1. In words: Downregulation of CPT-1 gene expression in mouse 3T3L1 cells at […] after 4 days by RT-PCR analysis. The experiment is classed as functional, cell-based.
Experiment [5] concerns 3T3-L1. In words: Upregulation of CPT-1 gene expression in mouse 3T3L1 cells at […] after 4 days by RT-PCR analysis relative to untreated control. The experiment is classed as functional, cell-based.
Experiment [6] relates to 3T3-L1. As to the kind of experiment: Upregulation of CPT-1 gene expression in mouse 3T3L1 cells at […] after 4 days by RT-PCR analysis relative to insulin. The experiment is classed as functional.

From ChEMBL document CHEMBL2424633, “Evaluation of the Influence of thiosemicarbazone-triazole hybrids on genes implicated in lipid oxidation and accumulation as potential anti-obesity agents” (2013) come the findings set out here.

Structures are written as SMILES. The source made the active and inactive calls. No cut-off for these calls is given here.

With `CCCCCCCCNC(=S)N/N=C\c1ccc(OCc2cn(Cc3ccccc3)nn2)cc1`, the outcome in experiment [1] and in experiment [4] was Active. The “fold change (FC)” value in experiment [2] and in experiment [3] was 4 each time.

Consider `S=C(NCCc1ccccc1)N/N=C\c1ccc(OCc2cn(Cc3ccccc3)nn2)cc1`, for which the result in experiment [1], in experiment [5] and in experiment [6] was Active. For the same compound, the “fold change (FC)” value in experiment [2] and in experiment [3] was 2 in each case.

With `CN(C)CCNC(=S)N/N=C\c1ccc(OCc2cn(Cc3ccccc3)nn2)cc1`, the outcome in experiment [1] was inactive. Moreover, the “fold change (FC)” value in experiment [2] is recorded as 2; in experiment [3] it was 2; in experiment [6], 3. The outcome in experiment [5] was Active.

`OCCNC(=S)N/N=C\c1ccc(OCc2cn(Cc3ccccc3)nn2)cc1`: the outcome in experiment [1] and in experiment [3] was inactive. The result in experiment [4] was Active.

In the case of `CC(C)CNC(=S)N/N=C\c1ccc(OCc2cn(Cc3ccccc3)nn2)cc1`, the outcome in experiment [1] and in experiment [5] was Active. Also, the “fold change (FC)” value was found to be 2 in experiment [2], 2 in experiment [3] and 5 in experiment [6].

For the compound `CCCCCNC(=S)N/N=C\c1ccc(OCc2cn(Cc3ccccc3)nn2)cc1`, the outcome in experiment [1], in experiment [3] and in experiment [5] was Active. Moreover, the “fold change (FC)” value in experiment [6] came out at 2.

On to `OCCCCCCNC(=S)N/N=C\c1ccc(OCc2cn(Cc3ccccc3)nn2)cc1`, for which the outcome in experiment [1], in experiment [3], in experiment [5] and in experiment [6] was Active.
